Test results as given in patent US20230172984A1, “CLEARANCE OF SENESCENT CELLS BY ACTIVATION OF iNKT CELLS” (THE REGENTS OF THE UNIVERSITY OF CALIFORNIA, priority 2020, published 2023).

Experiments:
[1] = pre-clinical and clinical studies, Wolf et al., 2018; cited from earlier work
[2] = Lynch 2012, Schipper 2012, Ji 2012; cited from earlier work
[3] = system: senescent preadipocytes (C12FDG^Hi) in eWAT of HFD mice; assay: C12FDG flow cytometry assay (SA-βgal activity) on eWAT SVF of HFD mice; type: in vivo, mouse
Method: MATERIALS AND METHODS. Mouse husbandry. All procedures involving mice were performed according to the IACUC standards following ethics approval by the animal committee at the University of California, San Francisco. Male C57BL6/J on chow or HFD fed mice. HFD mice were fed a high-fat diet (60% kcal from fat) from 6 weeks until 22 weeks of age. All experiments on HFD mice were performed at 22-24 weeks total age (16-18 weeks on HFD). Age-matched male C57BL6/J mice on standard rodent chow diet were used as controls. For the lung injury model, 10-week-old male C57BL/6J mice were used. The animals were divided into three groups: the control group, the injured group, and the α-GalCer treated group. The animals in the control group received vehicle only (i.p.) on day 10. The injured group animals received bleomycin (3 U/kg) via the intratracheal route at the start of the experiment (day 0). The animals in the α-GalCer treated groups received bleomycin (3 U/kg) on day 0, and i.p. injection of α-GalCer (2 μg/mouse) on day 10. The animals in all the groups were sacrificed on day 14, and lungs were harvested for isolation of primary pulmonary Alveolar Type II cells (ATII) on the same day. For the hydroxyproline assay, mice were euthanized 21 days after injury.
Epidydmal white adipose tissue stromal vascular fraction (eWAT SVF) isolation. eWAT SVF was isolated using standard protocols. Briefly, mice were euthanized, and epididymal fat pads were harvested, washed twice in D-PBS and minced. eWAT pads were digested with 1 U/ml Collagenase-D (Roche) in 1×HBSS containing 1% BSA (Sigma-Aldrich) for 1 hr at 37° C. Digested fat tissue was then strained twice through 100 μm strainers and neutralized with 30 ml of complete culture media (DMEM-F12 1:1, 10% FBS, 1×Penicillin-streptomycin). Samples were spun at 500 g for 5 minutes, shaken to resuspend the SVF pellet and then spun again. The resulting SVF pellet containing blood cells was lysed with ACKS buffer, washed in D-PBS and spun down. Total live SVF cells were counted using trypan blue and then used for various assays.
C12FDG flow cytometry assay. eWAT SVF cells isolated and counted as described above were adjusted to 3×10^6 cells/ml in complete culture media and incubated with 33 μM C12FDG for 1 hr in a 37° C. water bath. Cells were then spun down at 500 g for 5 minutes, washed with Cell Staining buffer, and stained with anti-CD45-APC (clone 30F-11) and anti-CD31-PE-Cy7 (clone 390) each at a 1:200 dilution on ice for 30 minutes. Cells were then washed in Cell Staining buffer and resuspended in Cell Staining buffer containing 1×7-AAD. Samples were analyzed on an Attune acoustic focusing cytometer. Gates were set as follows: cells (FSC-A/SSC-A), forward scatter singlets (FSC-H/FSC-A), side-scatter singlets (SSC-H/SSC-A), live cells (7-AAD^−), non-immune cells (CD45^−), non-endothelial cells (CD31^−) and analyzed for C12FDG fluorescence. […] Data were analyzed with FlowJo (v. 10). For Lung, 1×10^6 cells from each sample were used to perform the assay. The cells were incubated with 66 μm of C12FDG in sterile DMEM containing DNase for 1 hour at 37° C. Following the incubation, the cells were washed with cell staining buffer, blocked with anti CD16/32 mouse monoclonal antibody (1:1000, prepared by the UCSF monoclonal antibody core), and stained with APC anti-mouse CD45 (1:400), and 7-AAD (1:1000). The gating strategy followed selected 7-AAD^−, CD45^−, and C12FDG^+ cells. […]

iNKT cells in the eWAT = assay: Flow cytometry of iNKT cells in eWAT SVF of HFD mice (CD1d tetramer); type: in vivo, mouse; details: 2 μg i.p., vs obese mice treated with vehicle
Method: α-GalCer activation of iNKT cells. iNKT cells were activated in vivo using α-GalCer as described in Peralbo et al., 2006. Decreased frequency and proliferative response of invariant Vα24Vβ11 natural killer T (iNKT) cells in healthy elderly. Biogerontology 7, 483-492. Briefly, HFD mice were i.p. injected with 200 μl of a 10 μg/ml α-GalCer solution (2 μg total) made up in 5.6% Sucrose, 5% Tween-20. On day 3 or 4 post-injection, mice were euthanized for various experiments, as indicated.
Flow cytometry of iNKT cells. eWAT SVF cells were stained with PBS57 (α-GalCer-analog) loaded onto CD1d-PE tetramers prepared by the NIH Tetramer Core and anti-CD3-APC. As a negative control for subtracting background staining in eWAT SVF, samples were also stained with unloaded CD1d-PE tetramer and anti-CD3-APC. Live cells were enumerated with DAPI, and flow cytometry was performed on an Attune acoustic focusing cytometer. Gates were set to identify: cells (FSC-A/SSC-A), forward scatter singlets (FSC-H/FSC-A), side-scatter singlets (SSC-H/SSC-A), live cells (DAPI^−), and the PBS57::CD1d-PE^+/CD3-APC^+ subpopulation. The percent of unloaded CD1d-PE^+/CD3-APC^+ cells were subtracted from the loaded tetramer stained populations to eliminate the percent of background stained cells. For lung, 1×10^6 cells from each sample were used to quantify iNKT cells. […]

## CCCCCCCCCCCCCCCCCCCCCCCCCC(=O)N[C@@H](CO[C@H]1O[C@H](CO)[C@H](O)[C@H](O)[C@H]1O)[C@H](O)[C@H](O)CCCCCCCCCCCCCC [GalCer, alpha-Galactosylceramide]
[1]
  tolerability / side effects: generally been well-tolerated over a wide range of doses with minimal side effects
[2]
  metabolic phenotypes in the HFD mouse model (literature): reverse adverse metabolic phenotypes
[3]; HFD fed Traj18^−/− mice (lack invariant TCR chain) injected with GalCer
  senescent cells (C12FDG+ SVF cells), Traj18^−/− HFD mice: failed to reduce senescent cells in Traj18^−/− mice
[3]; HFD fed WT mice injected with GalCer
  senescent cells (C12FDG+ SVF cells), WT HFD mice: reduction of senescent cells in WT HFD mice
[3]; HFD mice injected with GalCer (2 μg i.p.) vs vehicle, FIG. 3A
  number of C12FDG^Hi preadipocytes in eWAT: deplete the number of these C12FDG^Hi cells to levels akin to those seen in lean control mice
iNKT cells in the eWAT
  iNKT cell numbers in eWAT: dramatically increase iNKT cell numbers
